One compound from patent US20240374581A1, “SALT TYPES OF TRICYCLIC TETRAHYDRO ISOQUINOLINE DERIVATIVE” (JIANGSU HENGRUI PHARMACEUTICALS CO., LTD., priority 2021, published 2024) can be followed below.

Molecules are shown by their SMILES. Where only a bound is given, the exact number is not on record here.

One data set addresses CYP3A4 (Homo sapiens (Human), UniProt P08684). The experiment in a line: Time-dependent inhibition of site of metabolism of testosterone in human liver microsome CYP3A4. The data set is classed as in vitro ADME. The following applies: for IC50: testosterone site. On the procedure: • 1. Phosphate buffer (20×PBS, purchased from Sangon); • 2. NADPH (ACROS, A2646-71-1); • 3. Human liver microsome (Corning Gentest, Cat No. 452161, Lot No. 905002, Donor36); • 4. ABI QTrap 4000 LC-MS System (AB Sciex); • 5. ZORBAX Extend-C18, 3×50 mm, 3.5 m (Agilent, USA); • 6. CYP probe substrate (testosterone, Vocko, CAS No. [58-22-0]/75 μM) and positive control inhibitor (verapamil, Adamas Reagent Co., Ltd, Cat No. 25904A).
A 100 mM PBS buffer was prepared. A 0.25 mg/mL microsome solution, a 7.5 mM MgCl2 and a 5 mM NADPH solution were prepared using the buffer. A 30 mM stock solution was diluted with DMSO to obtain 30 mM, 10 mM, 3 mM, 1 mM, 0.3 mM, 0.1 mM, 0.03 mM and 0 mM serial solutions I, which were further diluted 200-fold with phosphate buffer (PBS) to obtain serial test solutions II (150, 50, 15, 5, 1.5, 0.5, 0.15 and 0 μM). A midazolam working solution was diluted with PBS to 15 μM.
The serial test solutions prepared above were well mixed by shaking and aliquoted in 20 μL portions into corresponding reaction plates (+NADPH, TO and -NADPH groups were set). Three parallel tests were set. 40 μL of the liver microsome working solution was added to each 96-well plate. 20 μL of a corresponding substrate solution was added to the TO plate. 20 μL of NADPH was added to the TO plate and +NADPH group. A timer was started, and the plates were incubated in a water bath at 37° C. After 30 min of incubation, the TO plate was taken out, and the reaction was terminated with 250 μL of an internal standard-containing ACN solution. The +NADPH group was supplemented with 20 μL of the corresponding substrate solution, and the −NADPH group was supplemented with 20 μL of the corresponding substrate solution and 20 μL of NADPH. A timer was started, and the plates were incubated in a water bath at 37° C. After 30 min of incubation, the plates were taken out, and the reactions were terminated with 250 μL of an internal standard-containing ACN solution. […]
The IC50 value of the drug for the site of metabolism of testosterone in CYP3A4 was calculated by Graphpad Prism and is shown in Table 8.

The test system of data set [1] is ERα Y537S mutant-expressing MCF7 cells. Description: Inhibition of proliferation of ERα mutant-expressing MCF7 cells. The format is cell-based. Conditions: Homo sapiens, 144 h, read-out: IC50, inhibitory effect on the proliferation of ERα mutant-expressing MCF7 cells. An excerpt:
The mutant estrogen receptor α (ERα) Y537S of human ERα protein was obtained by site-directed mutagenesis in a two-primer PCR manner using the cDNA of wild-type ESR1 gene (Accession No. NM000125) as a template. The sequences of the primers used in the mutation are as follows (the underlined nucleotides are the sites of mutation): Y537S: F-AAGAACGTGGTGCCCCTCTCTGACCTGCTGCTGGAGATG (SEQ ID NO: 1); R-CATCTCCAGCAGCAGGTCAGAGAGGGGCACCACGTTCTT (SEQ ID NO: 2). The cDNA of the mutant ESR1 was cloned into the lentiviral vector of interest pCDH-CMV-MCS-EF1-Puro. The lentiviral plasmid bearing the mutant ESR1 gene sequence and the lentiviral packaging plasmid were then transfected into HEK-293T cells (ATCC, CRL-3216) by using Lipofectamine 3000 Transfection Reagent (ThermoFisher Scientific, Cat #L3000075). […]
The ERα mutant-expressing MCF7 cells were cultured in an MEM (GE Healthcare, SH30024.01) complete medium containing 10% fetal bovine serum. […] The plate was let stand at room temperature for 10 min, and the luminescence signal value was read using a multilabel microplate reader (PerkinElmer, VICTOR 3). The IC50 value for the inhibitory activity of the compound was calculated according to the compound concentration and the luminescence signal value and is shown in Table 3.

CYP3A4, sequence (P08684 whole entry): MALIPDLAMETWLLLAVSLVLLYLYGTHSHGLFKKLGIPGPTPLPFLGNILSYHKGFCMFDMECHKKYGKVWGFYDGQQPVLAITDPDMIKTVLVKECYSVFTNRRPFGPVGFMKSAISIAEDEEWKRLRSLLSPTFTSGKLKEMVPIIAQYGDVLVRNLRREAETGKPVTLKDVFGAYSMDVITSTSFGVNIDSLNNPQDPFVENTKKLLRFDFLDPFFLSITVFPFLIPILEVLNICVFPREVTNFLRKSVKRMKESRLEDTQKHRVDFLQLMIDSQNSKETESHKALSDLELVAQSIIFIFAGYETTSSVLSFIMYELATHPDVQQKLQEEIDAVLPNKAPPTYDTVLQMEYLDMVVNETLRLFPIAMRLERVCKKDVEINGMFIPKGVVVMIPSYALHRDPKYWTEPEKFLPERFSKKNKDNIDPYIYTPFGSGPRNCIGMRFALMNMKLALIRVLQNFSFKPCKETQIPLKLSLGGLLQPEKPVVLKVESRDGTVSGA

Take `[2H]C1([2H])Oc2cc3c(cc2O1)[C@@H](c1ccc(NC2CN(CCCF)C2)cn1)N(CC(F)(F)CO)[C@H](C)C3` [Compound 1, 2,2-Difluoro-3-((5S,7R)-5-(5-((1-(3-fluoropropyl)azetidin-3-yl)amino)pyridin-2-yl)-7-methyl-7,8-dihydro-[1,3]dioxolo[4,5-g]isoquinolin-6(5H)-yl-2,2-d2)propan-1-ol]: the “IC50 Shift” value at CYP3A4 (microsomes) is “No TDI”. For the same compound, the IC50 was more than 30 µM on CYP3A4 (pre-incubation with NADPH 30 min), more than 30 µM against CYP3A4 (pre-incubation without NADPH) and 0.00136 µM in data set [1].
